{
  "source": "paper doi:10.1101/2023.11.24.568596v1",
  "about": "(biorxiv, 2023)",
  "conditions_in_all_cases": "binder",
  "key": {"BRPF1": {"target": "T1, BRPF1 (Homo sapiens, UniProt P55201)", "T1 sequence (P55201 1-1214)": "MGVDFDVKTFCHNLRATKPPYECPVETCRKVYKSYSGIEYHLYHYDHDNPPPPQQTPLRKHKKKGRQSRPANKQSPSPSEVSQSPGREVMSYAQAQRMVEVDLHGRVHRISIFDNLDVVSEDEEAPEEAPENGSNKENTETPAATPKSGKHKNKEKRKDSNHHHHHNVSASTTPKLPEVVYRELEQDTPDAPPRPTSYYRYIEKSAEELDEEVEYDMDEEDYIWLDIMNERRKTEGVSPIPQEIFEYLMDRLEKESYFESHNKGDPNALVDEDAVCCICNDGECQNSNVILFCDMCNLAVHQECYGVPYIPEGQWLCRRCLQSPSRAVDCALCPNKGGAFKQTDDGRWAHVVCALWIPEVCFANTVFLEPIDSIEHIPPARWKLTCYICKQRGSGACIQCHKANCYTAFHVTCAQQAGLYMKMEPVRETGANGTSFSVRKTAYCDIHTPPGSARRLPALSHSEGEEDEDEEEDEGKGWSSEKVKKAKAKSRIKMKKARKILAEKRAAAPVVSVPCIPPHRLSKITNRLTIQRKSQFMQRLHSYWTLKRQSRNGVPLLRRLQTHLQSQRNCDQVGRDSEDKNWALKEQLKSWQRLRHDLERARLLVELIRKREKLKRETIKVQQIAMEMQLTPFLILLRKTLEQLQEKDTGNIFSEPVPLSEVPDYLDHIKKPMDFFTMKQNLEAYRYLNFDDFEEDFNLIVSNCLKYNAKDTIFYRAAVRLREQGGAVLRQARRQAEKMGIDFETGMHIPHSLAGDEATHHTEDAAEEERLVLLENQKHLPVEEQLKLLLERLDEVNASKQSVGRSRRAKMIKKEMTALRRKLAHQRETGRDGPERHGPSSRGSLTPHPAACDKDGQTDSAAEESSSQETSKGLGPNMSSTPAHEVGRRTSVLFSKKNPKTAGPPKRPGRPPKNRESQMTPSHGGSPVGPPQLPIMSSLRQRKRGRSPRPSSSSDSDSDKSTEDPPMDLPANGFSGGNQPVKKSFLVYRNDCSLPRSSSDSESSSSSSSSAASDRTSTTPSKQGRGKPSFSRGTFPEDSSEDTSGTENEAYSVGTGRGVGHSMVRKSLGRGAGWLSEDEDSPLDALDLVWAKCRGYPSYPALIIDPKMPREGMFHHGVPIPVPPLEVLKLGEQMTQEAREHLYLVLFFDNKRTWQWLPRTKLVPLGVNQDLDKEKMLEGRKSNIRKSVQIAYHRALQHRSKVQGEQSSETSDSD"}, "CASK": {"target": "T2, CASK (Homo sapiens, UniProt O14936)", "T2 sequence (O14936 1-926)": "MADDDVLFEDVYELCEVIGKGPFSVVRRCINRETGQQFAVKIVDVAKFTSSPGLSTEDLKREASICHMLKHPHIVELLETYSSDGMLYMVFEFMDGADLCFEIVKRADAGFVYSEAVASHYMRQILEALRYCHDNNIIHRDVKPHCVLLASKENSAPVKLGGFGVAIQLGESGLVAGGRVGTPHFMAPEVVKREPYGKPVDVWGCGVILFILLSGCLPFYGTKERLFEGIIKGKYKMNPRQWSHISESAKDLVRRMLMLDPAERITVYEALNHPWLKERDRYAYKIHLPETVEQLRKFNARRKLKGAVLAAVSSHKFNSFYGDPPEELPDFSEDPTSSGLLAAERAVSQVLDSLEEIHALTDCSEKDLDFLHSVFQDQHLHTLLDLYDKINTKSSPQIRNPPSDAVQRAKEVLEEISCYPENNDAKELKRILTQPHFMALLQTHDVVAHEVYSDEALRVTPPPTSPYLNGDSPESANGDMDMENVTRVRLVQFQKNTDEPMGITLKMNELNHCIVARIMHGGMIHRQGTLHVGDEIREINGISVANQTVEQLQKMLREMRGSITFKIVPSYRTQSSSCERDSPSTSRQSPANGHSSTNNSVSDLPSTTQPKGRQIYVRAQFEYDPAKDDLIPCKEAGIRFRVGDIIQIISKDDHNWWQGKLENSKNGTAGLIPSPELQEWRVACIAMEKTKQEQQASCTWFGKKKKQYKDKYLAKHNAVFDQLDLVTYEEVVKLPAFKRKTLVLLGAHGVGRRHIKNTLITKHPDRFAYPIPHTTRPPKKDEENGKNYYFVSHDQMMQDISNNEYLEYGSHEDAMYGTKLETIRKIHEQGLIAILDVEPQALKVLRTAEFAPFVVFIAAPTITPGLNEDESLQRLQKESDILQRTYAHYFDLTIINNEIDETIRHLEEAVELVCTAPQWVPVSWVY"}, "MAP2K7": {"target": "T3, MAP2K7 (Homo sapiens, UniProt O14733)", "T3 sequence (O14733 1-419)": "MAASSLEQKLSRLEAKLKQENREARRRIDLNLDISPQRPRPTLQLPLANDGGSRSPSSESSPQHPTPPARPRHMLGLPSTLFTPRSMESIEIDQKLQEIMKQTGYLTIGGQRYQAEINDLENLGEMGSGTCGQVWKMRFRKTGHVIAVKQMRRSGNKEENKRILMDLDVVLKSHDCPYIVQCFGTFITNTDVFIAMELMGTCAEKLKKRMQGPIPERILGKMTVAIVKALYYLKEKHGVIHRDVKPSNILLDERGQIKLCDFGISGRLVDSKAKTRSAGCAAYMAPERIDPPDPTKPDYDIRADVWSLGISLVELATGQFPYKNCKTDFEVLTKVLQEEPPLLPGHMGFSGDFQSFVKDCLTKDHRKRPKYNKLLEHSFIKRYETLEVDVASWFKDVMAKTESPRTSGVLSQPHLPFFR"}},
  "data": [
    {"smiles": "COc1cc(N2CCN(C)CC2)ccc1Nc1ncc2cc(-c3ccc(-c4cccc(C)n4)cc3Cl)c(=O)n(CCCCN)c2n1", "note": "[compound 36, 8-(4-Aminobutyl)-6-(2-chloro-4-(6-methylpyridin-2-yl)phenyl)-2-((2-methoxy-4-(4-methylpiperazin-1-yl)phenyl)amino)pyrido[2,3-d]pyrimidin-7(8H)-one]", "values": [
      {"measurement": "dTm 36", "setting": "BRPF1", "value": -1.2, "unit": "°C"},
      {"measurement": "dTm 36", "setting": "CASK", "value": -0.4, "unit": "°C"},
      {"measurement": "dTm 36", "setting": "MAP2K7", "value": 0.0, "unit": "°C"}
    ]},
    {"smiles": "COc1ccc(O)c(Nc2ncc3cc(-c4ccc(-c5cccc(C)n5)cc4Cl)c(=O)n(CCCCN)c3n2)c1", "note": "[compound 34, 8-(4-Aminobutyl)-6-(2-chloro-4-(6-methylpyridin-2-yl)phenyl)-2-((2-hydroxy-5-methoxy-phenyl)amino)pyrido[2,3-d]pyrimidin-7(8H)-one]", "values": [
      {"measurement": "dTm 34", "setting": "BRPF1", "value": -1.6, "unit": "°C"},
      {"measurement": "dTm 34", "setting": "CASK", "value": -0.2, "unit": "°C"},
      {"measurement": "dTm 34", "setting": "MAP2K7", "value": 1.3, "unit": "°C"}
    ]},
    {"smiles": "COc1cc(N2CCOCC2)ccc1Nc1ncc2cc(-c3ccc(-c4cccc(C)n4)cc3Cl)c(=O)n(CCCCN)c2n1", "note": "[compound 35, 8-(4-Aminobutyl)-6-(2-chloro-4-(6-methylpyridin-2-yl)phenyl)-2-((2-methoxy-4-morpholino-phenyl)amino)pyrido[2,3-d]pyrimidin-7(8H)-one]", "values": [
      {"measurement": "dTm 35", "setting": "BRPF1", "value": -2.8, "unit": "°C"},
      {"measurement": "dTm 35", "setting": "CASK", "value": 0.0, "unit": "°C"},
      {"measurement": "dTm 35", "setting": "MAP2K7", "value": 2.0, "unit": "°C"}
    ]},
    {"smiles": "Cc1cccc(-c2ccc(-c3cc4cnc(Nc5ccc(F)c(CO)c5)nc4n(CCCCN)c3=O)c(Cl)c2)n1", "note": "[compound 33, 8-(4-Aminobutyl)-6-(2-chloro-4-(6-methylpyridin-2-yl)phenyl)-2-((4-fluoro-3-(hydroxymethyl)phenyl)amino)pyrido[2,3-d]pyrimidin-7(8H)-one]", "values": [
      {"measurement": "dTm 33", "setting": "BRPF1", "value": -2.7, "unit": "°C"},
      {"measurement": "dTm 33", "setting": "CASK", "value": 0.2, "unit": "°C"},
      {"measurement": "dTm 33", "setting": "MAP2K7", "value": 7.7, "unit": "°C"}
    ]}
  ]
}
